Results reported in patent US11020366B2, “Locomotor activity and increase in longevity of late infantile neuronal ceriod lipofuscinosis subjects by Gemfibrozil” (Rush University Medical Center, priority 2016, dated 2021).

Assays:
Cln2^(−/−) mice [1] = test: Locomotor activity (Digiscan Monitor open field) in Cln2(−/−) mice; format: in vivo, mouse; settings: oral gem 7.5 mg/kg/day, after 8 weeks of treatment
Experimental: (§1) Age- and sex-matched Cln2^(+/+) mice from the same background were used as wild type (WT) controls and Cln2^(−/−) animals were used in different treatment groups. Gem (7.5 mg/kg body wt/day) was dissolved in DMSO followed by dilution in 0.1% methyl cellulose (MeC). Cln2^(−/−) mice were either not fed (Un-untreated group), gavaged with 0.1% MeC (vehicle treated group) or gavaged with gem (gem-treated group) for 8 weeks for biochemical studies. Similar treatment regimen was followed as long as the animals are not considered to be morbid as described above for survival study. Here, 40 mice (20 male and 20 female) were used per group and animals (4 weeks old) were randomly selected for any group.
Locomotor activities were measured in Cln2^(−/−) mice after 8 weeks of gem treatment using Digiscan Monitor (Omnitech Electronics, Inc., Columbus, Ohio) as described by us (Khasnavis & Pahan 2014, Ghosh et al. 2007, Ghosh et al. 2009). This Digiscan Monitor records basic locomotion parameters, such as horizontal activity, total distance traveled, movement time, rest time, etc. as well as stereotypy, behavior that is directly controlled by striatum. […] DIGISCAN software was used to analyze and store horizontal and vertical activity data, which were monitored automatically by infra-red beams. […]

[2] = after oral administration; cited from earlier work
SOCS3 [3] = test: Western blot of motor cortex and striatum extracts for SOCS3; format: in vivo, mouse; settings: Cln2(−/−) mice, 8 weeks of oral gem; both motor cortex and striatum
Experimental: as §1
(§2) After 8 weeks of treatment, mice were sacrificed and cortex and striatum regions were isolated, homogenized in RIPA buffer (150 mM sodium chloride, 1.0% NP-40 or Triton X-100, 0.5% sodium deoxycholate, 0.1% SDS (sodium dodecyl sulphate), 50 mM Tris, pH 8.0), supernatant was taken and protein was estimated by BioRad protein assay. Equal amounts of protein from the tissue extract were separated in 12% or 15% Bis-Tris gels and proteins were transferred onto a nitrocellulose membrane (Bio-Rad) using the Thermo-Pierce Fast Semi-Dry Blotter (Corbett et al. 2015, Roy et al. 2015, Roy et al. 2016). […]

astroglia or microglia = test: Astroglia and microglia in brain sections (GFAP, Iba1 immunofluorescence); format: in vivo, mouse; settings: Cln2(−/−) mice, after gem treatment; motor cortex and striatum
Experimental: as §1
(§3) After 8 weeks of treatment, mice were sacrificed and their brains fixed, embedded, and processed. Sections (30 μm) were made from different brain regions (motor cortex and striatum) using a Leica Cryostat and immunofluorescence staining on fresh frozen sections was performed as described (Corbett et al. 2015, Roy et al. 2015, Roy et al. 2016). […] The samples were mounted and observed under Olympus IX41 fluorescence microscope. […] After acquiring images under 20×objective lens, images were further analyzed as follows. […] Once the area of the image was measured, touch counting program was applied to count number of fluorescent signals using simple mouse click method. […]

IL-1Ra [4] = test: Double-label immunofluorescence of striatal sections for IL-1Ra (GFAP, Iba1); format: in vivo, mouse; settings: Cln2(−/−) mice, 8 weeks of oral gem, in both astrocytes and microglia
Experimental: as §1, §3

NeuN-positive neurons = test: Neuronal apoptosis, NeuN/TUNEL double-labeling of brain sections; format: in vivo, mouse; settings: Cln2(−/−) mice, oral gem 7.5 mg/kg/day, 8 weeks
Experimental: Reagents for TUNEL assay on frozen brain sections were purchased from EMD Millipore (Billerica, Mass.) and experiments were performed according to manufacturer's protocol. Blocking buffer and secondary antibodies for immune blot (IB) (IRDye 700 or IRDye 800—labelled) were purchased from Licor (Lincoln, Nebr.). Secondary antibodies for immunohistochemistry (IHC) (FITC or Cy5—labeled) were purchased from Jackson ImmunoResearch (West Grove, Pa.).
Age- and sex-matched Cln2^(+/+) mice from the same background were used as wild type (WT) controls and Cln2^(−/−) animals were used in different treatment groups. Gem (7.5 mg/kg body wt/day) was dissolved in DMSO followed by dilution in 0.1% methyl cellulose (MeC). Cln2^(−/−) mice were either not fed (Un-untreated group), gavaged with 0.1% MeC (vehicle treated group) or gavaged with gem (gem-treated group) for 8 weeks for biochemical studies. […]
(§4) After 8 weeks of treatment, mice were sacrificed and their brains fixed, embedded, and processed. […] The samples were mounted and observed under Olympus IX41 fluorescence microscope. […] After acquiring images under 20×objective lens, images were further analyzed as follows. […] Once the area of the image was measured, touch counting program was applied to count number of fluorescent signals using simple mouse click method. […]

IL-1Ra [5] = test: Western blot of motor cortex and striatum extracts for IL-1Ra; format: in vivo, mouse; settings: Cln2(−/−) mice, 8 weeks of oral gem; both motor cortex and striatum
Experimental: as §1, §2

SOCS3 [6] = test: Double-label immunofluorescence of striatal sections for SOCS3 (GFAP, Iba1); format: in vivo, mouse; settings: Cln2(−/−) mice, 8 weeks of oral gem, seen in astrocytes, microglia and other brain cells
Experimental: as §1, §3

Cln2^(−/−) mice [7] = test: Survival study of Cln2(−/−) mice treated orally with gem; format: in vivo, mouse; settings: gem 7.5 mg/kg body weight/day via gavage from 4 weeks of age
Description: Animal maintaining and experiments were in accordance with National Institute of Health guidelines and were approved by the Institutional Animal Care and Use committee (IACUC) of the Rush University of Medical Center, Chicago, Ill. […] However, if any mouse came to the moribund stage, it was decapitated after anesthesia with ketamine/xylazine injectables. Conditions for moribund were as follows: central nervous system disturbance (head tilt, seizures, tremors, circling, spasticity, and paresis); inability to remain upright; evidence of muscle atrophy; chronic diarrhea or constipation; rough coat and distended abdomen; preading area of alopecia caused by disease; coughing, rales, wheezing and nasal discharge; distinct jaundice and/or paleness (anemia); markedly discolored urine, polyuria or anuria; frank bleeding from any orifice; persistent self-induced trauma. Cln2^(+/−) animals were kindly provided by Dr. Peter Lobel (Center for Advanced Biotechnology and Medicine, Robert Wood Johnson Medical School, Piscataway, N.J., USA). These animals were inbred and subsequent generations were screened by RTPCR to further obtain Cln2^(+/+), Cln2^(+/−) and Cln2^(−/−) strains. […]
All values are expressed as means±SEM. […]

phospho-BAD (P-BAD) = test: Immunoblot of brain homogenates for phospho-BAD; format: in vivo, mouse; settings: Cln2(−/−) mice, oral gem 7.5 mg/kg/day, 8 weeks
Experimental: as §1, §2

[8] = test system: subunit c of mitochondrial ATP synthase (SCMAS); test: Detection of storage materials by immunofluorescence of subunit c in motor cortex; format: in vivo, mouse; settings: Cln2(−/−) mice, oral gem 7.5 mg/kg/day, 8 weeks
Experimental: as §1, §4
It was performed by monitoring subunit c of mitochondrial ATP synthase (SCMAS) by immunofluorescence. […] SCMAS-associated fluorescence intensity was quantified by using the Olympus Microsuite V software. […]

[9] = cited from earlier work

SMILES: Cc1ccc(C)c(OCCCC(C)(C)C(=O)O)c1 [gem, 5-(2,5-dimethylphenoxy)-2,2-dimethylpentanoic acid]
- locomotor activities (horizontal activity, movement time, number of movement, total distance, stereotypy counts, rest time) (Cln2^(−/−) mice [1]): significantly improved locomotor activities
- entry into the CNS [2]: enters into the CNS
- SOCS3 level, Western blot (SOCS3 [3]): increase in SOCS3
- number of astroglia or microglia (astroglia or microglia): did not observe any reduction in either astroglia or microglia
- IL-1Ra in the striatum, immunofluorescence (IL-1Ra [4]): restoration and/or upregulation of IL-1Ra
- neuronal apoptosis (NeuN+TUNEL+ cells) in the motor cortex (NeuN-positive neurons; motor cortex): strongly inhibited neuronal apoptosis
- neuronal apoptosis (NeuN+TUNEL+ cells) in the striatum (NeuN-positive neurons; striatum): reduced neuronal apoptosis
- IL-1Ra level, Western blot (IL-1Ra [5]): increase
- SOCS3 in the striatum, immunofluorescence (SOCS3 [6]): marked increase in SOCS3
- increase of the lifespan (Cln2^(−/−) mice [7]): more than 2 months
- survived until (Cln2^(−/−) mice [7]; untreated all died within 137 days, vehicle within 150 days): 204 days
- level of P-BAD in the motor cortex (phospho-BAD (P-BAD); motor cortex): upregulation of P-BAD
- level of P-BAD in the striatum (phospho-BAD (P-BAD); striatum): increased the level of P-BAD
- SCMAS storage material in the motor cortex [8]: significant decrease in SCMAS
- tolerability ([9]; human and animal studies): well tolerated
- toxicity ([9]; oral drug): fairly nontoxic
